Measurements: the NIST ThermoML archive (doi:10.1016/j.fluid.2013.08.029)

Test: xn = mol fraction of the nth substance listed
Details: 101 kPa, Liquid; for speed of sound: Sing-around technique in a fixed-path interferometer; for mass density: Vibrating tube method

CCCCn1cc[n+](C)c1C.F[B-](F)(F)F [1-butyl-2,3-dimethylimidazolium tetrafluoroborate] + OCCO
Details	mass density [kg/m3]	speed of sound [m/s]
288.15 K, x1 = 0.0698	1138.16	1674
288.15 K, x1 = 0.1114	1148.04	1668.1
288.15 K, x1 = 0.219	1163.09	1661.9
288.15 K, x1 = 0.3157	1172.24	1657
288.15 K, x1 = 0.4167	1177.8	1653.7
288.15 K, x1 = 0.5153	1181.99	1652.5
288.15 K, x1 = 0.6157	1185.96	1653.1
288.15 K, x1 = 0.7042	1189.36	1654.9
288.15 K, x1 = 0.8028	1192.88	1658
288.15 K, x1 = 0.9065	1196.58	1662.1
293.15 K, x1 = 0.0698	1134.55	1661
293.15 K, x1 = 0.1114	1144.09	1655.6
293.15 K, x1 = 0.219	1159.15	1649.5
293.15 K, x1 = 0.3157	1167.38	1643.8
293.15 K, x1 = 0.4167	1172.09	1639.4
293.15 K, x1 = 0.5153	1176.32	1638
293.15 K, x1 = 0.6157	1180.66	1638.7
293.15 K, x1 = 0.7042	1184.47	1641.5
293.15 K, x1 = 0.8028	1188.27	1645.2
293.15 K, x1 = 0.9065	1192.09	1649.9
298.15 K, x1 = 0.0698	1130.93	1648.8
298.15 K, x1 = 0.1114	1140.43	1643.3
298.15 K, x1 = 0.219	1155.3	1636.8
298.15 K, x1 = 0.3157	1162.95	1631.4
298.15 K, x1 = 0.4167	1167.85	1628.2
298.15 K, x1 = 0.5153	1171.8	1627.1
298.15 K, x1 = 0.6157	1176.73	1627.5
298.15 K, x1 = 0.7042	1180.56	1630.3
298.15 K, x1 = 0.8028	1184.59	1633.5
298.15 K, x1 = 0.9065	1188.59	1637.7
303.15 K, x1 = 0.0698	1127.3	1637
303.15 K, x1 = 0.1114	1136.79	1631.5
303.15 K, x1 = 0.219	1151.47	1624.4
303.15 K, x1 = 0.3157	1158.29	1619.7
303.15 K, x1 = 0.4167	1162.58	1616.6
303.15 K, x1 = 0.5153	1166.36	1615.5
303.15 K, x1 = 0.6157	1171.53	1616.5
303.15 K, x1 = 0.7042	1176.14	1618.8
303.15 K, x1 = 0.8028	1180.73	1621.7
303.15 K, x1 = 0.9065	1185.16	1625.7
308.15 K, x1 = 0.0698	1123.65	1625.3
308.15 K, x1 = 0.1114	1133.19	1619.4
308.15 K, x1 = 0.219	1147.66	1612.2
308.15 K, x1 = 0.3157	1154.93	1607.7
308.15 K, x1 = 0.4167	1158.22	1604.7
308.15 K, x1 = 0.5153	1161.45	1604.2
308.15 K, x1 = 0.6157	1167.01	1605
308.15 K, x1 = 0.7042	1172.28	1607.4
308.15 K, x1 = 0.8028	1177.55	1610.5
308.15 K, x1 = 0.9065	1182.72	1613.7
313.15 K, x1 = 0.0698	1120	1613.8
313.15 K, x1 = 0.1114	1129.53	1607.9
313.15 K, x1 = 0.219	1143.87	1600
313.15 K, x1 = 0.3157	1150.95	1595.7
313.15 K, x1 = 0.4167	1154.7	1592.9
313.15 K, x1 = 0.5153	1158.26	1592.8
313.15 K, x1 = 0.6157	1163.8	1594
313.15 K, x1 = 0.7042	1169.14	1596.4
313.15 K, x1 = 0.8028	1174.46	1598.9
313.15 K, x1 = 0.9065	1179.21	1602
318.15 K, x1 = 0.0698	1116.33	1602.5
318.15 K, x1 = 0.1114	1125.84	1596.2
318.15 K, x1 = 0.219	1140.07	1587.9
318.15 K, x1 = 0.3157	1147.06	1584
318.15 K, x1 = 0.4167	1150.9	1581.2
318.15 K, x1 = 0.5153	1154.9	1581.6
318.15 K, x1 = 0.6157	1160.61	1582.8
318.15 K, x1 = 0.7042	1165.8	1585.1
318.15 K, x1 = 0.8028	1171.11	1587.7
318.15 K, x1 = 0.9065	1175.65	1590.8
